Experimental data published in patent US10071109B2, “Predictive biomarker for hypoxia-activated prodrug therapy” (Molecular Templates, Inc., priority 2013, dated 2018).

Tests used:
[1] = Body weights of mice treated with TH-302 in PDX xenograft studies; format: in vivo; settings: 60 mg/kg i.p. Q2W, data not shown
Text: (§1) A series of tumor xenograft experiments was initiated. In these gall bladder and NSCLC tumor experiments, patient-derived tumor xenograft (PDX) models were selected since these models more accurately mimic the histology and genetics of actual human tumors as compared with the cell line derived models. More specifically, the original tumor sources for these human tumor xenograft models were patient-derived (PDX) gall bladder and lung carcinomas that have been maintained subcutaneously in nude mice for >3 passages. When grown to 500-700 mm^3, the tumors were harvested for inoculation by selecting and slicing (into 3×3×3 mm^3 fragments) well grown portions of tumors. These tumor fragments were implanted subcutaneously in the right flank of athymic nu/nu mice (female, 6-8 weeks old (18-20 g)) for the efficacy experiments. All of the procedures for tumor harvesting, inoculation, animal dosing, and tumor and body weight measurement were conducted in a sterile hoods.
For the efficacy studies, when the average tumor size reached 100-200 mm^3, mice were randomly grouped into vehicle and TH-302 treatment groups. Each group contained 8-10 mice. Since the tumor volume could affect the effectiveness of any given treatment, a randomized block design was used in the group assignment based upon their tumor volumes. […] Tumor volumes were measured twice weekly.

[2] = test system: panel of 11 cancer cell-line derived models; settings: previous tumor xenograft studies; cited from earlier work
[3] = test system: LU1380 NSCLC PDX xenograft model; assay: TH-302 efficacy in LU1380 NSCLC PDX xenograft model; format: in vivo, mice
Text: as §1
(§2) For the efficacy studies, when the average tumor size reached 100-200 mm^3, mice were randomly grouped into vehicle and TH-302 treatment groups. Each group contained 8-10 mice. […] Tumor volumes were measured twice weekly.
(§3) %ΔT/ΔC was calculated with the formula below: %ΔT/ΔC=((TVf−TVi)/(TVfCtrl−TViCtrl))×100% where TV=tumor volume, f=final, I=initial, and Ctrl=control group. […]

[4] = test system: GL1208 gall bladder cancer PDX xenograft model; assay: TH-302 efficacy in GL1208 gall bladder cancer PDX xenograft model; format: in vivo, mice
Text: as §1, §2, §3

[5] = test system: LU1235 NSCLC PDX xenograft model; assay: TH-302 efficacy in LU1235 NSCLC PDX xenograft model; format: in vivo, mice
Text: as §1, §2, §3

[6] = test system: LU1245 NSCLC PDX xenograft model; assay: TH-302 efficacy in LU1245 NSCLC PDX xenograft model; format: in vivo, mice
Text: as §1
(§4) For the efficacy studies, when the average tumor size reached 100-200 mm^3, mice were randomly grouped into vehicle and TH-302 treatment groups. Each group contained 8-10 mice. Since the tumor volume could affect the effectiveness of any given treatment, a randomized block design was used in the group assignment based upon their tumor volumes. […] After randomization, mice were treated with either vehicle or TH-302 i.p. 60 mg/kg twice per week (Q2W) for approximately 5-8 weeks based on tumor grow rate and response. The precise dosing periods are described in the legends of FIGS. 1 and 2 above. Tumor volumes were measured twice weekly.
(§5) %ΔT/ΔC was calculated with the formula below: %ΔT/ΔC=((TVf−TVi)/(TVfCtrl−TViCtrl))×100% where TV=tumor volume, f=final, I=initial, and Ctrl=control group.
(§6) If tumor regression was observed: %ΔT/ΔC=(TVf−TVi)/TVi)×100%=% Regression=(1−(TVf/TVi))×100% where TV=tumor volume, f=final, I=initial, and Ctrl=control group. […]

[7] = test system: LU2505 NSCLC PDX xenograft model; assay: TH-302 efficacy in LU2505 NSCLC PDX xenograft model; format: in vivo, mice
Text: as §1, §2, §3

[8] = test system: GL0608 gall bladder cancer PDX xenograft model; assay: TH-302 efficacy in GL0608 gall bladder cancer PDX xenograft model; format: in vivo, mice
Text: as §1, §4, §5, §6

[9] = test system: LU0387 NSCLC PDX xenograft model; assay: TH-302 efficacy in LU0387 NSCLC PDX xenograft model; format: in vivo, mice
Text: as §1, §2, §3

[10] = test system: LU1304 NSCLC PDX xenograft model; assay: TH-302 efficacy in LU1304 NSCLC PDX xenograft model; format: in vivo, mice
Text: as §1, §2, §3

[11] = test system: LU0357 NSCLC PDX xenograft model; assay: TH-302 efficacy in LU0357 NSCLC PDX xenograft model; format: in vivo, mice
Text: as §1, §2, §3

Structure (SMILES): Cn1c(COP(=O)(NCCBr)NCCBr)cnc1[N+](=O)[O-] [TH-302, (2-bromoethyl)({[(2-bromoethyl)amino][(2-nitro-3-methylimidazol-4-yl)methoxy]phosphoryl})amine]
- changes in the body weights of the mice treated with TH-302 ([1]; NSCLC PDX studies (LU1245, LU1380)): No significant changes
- changes in the body weights of the mice treated with TH-302 ([1]; gall bladder PDX studies (GL0608, GL1208)): No significant changes
- monotherapy efficacy (tumor growth delays) [2]: modest
- %ΔT/ΔC (TH-302) ([3]; LU1380, NSCLC EGFR wt, TH-302 60 mg/kg i.p. twice per week (Q2W), 42 days): 86%
- antitumor activity (tumor growth measurements), in words ([3]; LU1380, 60 mg/kg i.p. Q2W, after 42 days treatment): minor tumor growth inhibition
- %ΔT/ΔC (TH-302) ([4]; GL1208, gall bladder, adenosquamous, TH-302 60 mg/kg i.p. twice per week (Q2W), 49 days): 62%
- antitumor activity (tumor growth measurements), in words ([4]; GL1208, 60 mg/kg i.p. Q2W, after 49 days treatment): minor tumor growth inhibition
- %ΔT/ΔC (TH-302) ([5]; LU1235, NSCLC EGFR mt, TH-302 60 mg/kg i.p. twice per week (Q2W), approximately 5-8 weeks): 74%
- antitumor activity, in words ([5]; LU1235, similar to LU1380): minor level of efficacy
- %ΔT/ΔC (TH-302) ([6]; LU1245, NSCLC EGFR wt, TH-302 60 mg/kg i.p. twice per week (Q2W), 49 days): −42%
- antitumor activity (tumor growth measurements), in words ([6]; LU1245, 60 mg/kg i.p. Q2W, 49 day dosing period): highly sensitive
- mice with a complete response (lack of tumor re-growth following regression) ([6]; LU1245, 60 mg/kg i.p. Q2W, 49 day dosing, at day 73 (14 days post treatment termination)): 5/10
- %ΔT/ΔC (TH-302) ([7]; LU2505, NSCLC EGFR wt, TH-302 60 mg/kg i.p. twice per week (Q2W), approximately 5-8 weeks): 34%
- antitumor activity, in words ([7]; LU2505, similar to LU1380): minor level of efficacy
- %ΔT/ΔC (TH-302) ([8]; GL0608, gall bladder, adenocarcinoma, TH-302 60 mg/kg i.p. twice per week (Q2W), 59 days): −100%
- mice with a complete response (lack of tumor re-growth following regression) ([8]; GL0608, 60 mg/kg i.p. Q2W for 59 days, at day 99, final tumor measurement): 10/10
- antitumor activity (tumor growth measurements), in words ([8]; GL0608, 60 mg/kg i.p. Q2W, treatment period 59 days): highly sensitive
- %ΔT/ΔC (TH-302) ([9]; LU0387, NSCLC EGFR mt, TH-302 60 mg/kg i.p. twice per week (Q2W), approximately 5-8 weeks): 84%
- antitumor activity, in words ([9]; LU0387, similar to LU1380): minor level of efficacy
- %ΔT/ΔC (TH-302) ([10]; LU1304, NSCLC EGFR wt, TH-302 60 mg/kg i.p. twice per week (Q2W), approximately 5-8 weeks): 93%
- antitumor activity, in words ([10]; LU1304, similar to LU1380): minor level of efficacy
- %ΔT/ΔC (TH-302) ([11]; LU0357, NSCLC EGFR mt, TH-302 60 mg/kg i.p. twice per week (Q2W), approximately 5-8 weeks): 93%
- antitumor activity, in words ([11]; LU0357, similar to LU1380): minor level of efficacy
